Common to all, as to assay type: cell-based
In test [1] the test system is Saccharomyces cerevisiae wild type strain SU-50. The experiment in a line: Growth curves / growth inhibition of yeast strain SU-50. To be noted: for effect on growth: comparative sugar 25 mM with 25 µM MB21, strain SU50, 100 cells per ml, versus reference (no sugar, no MMAS) and MB21 alone (Fig. 5a). How it is done:
(§1) For examples 2, and 4-9 grow-curves were recorded at 25°C using a microbiology growth reader (Bioscreen C, ex Labsystems). For example 3, growth curve was determined as turbidity, measured by hand at a wave length of 660 nm (OD 660).
(§2) • a) Saccharomyces cerevisiae strain SU52-pUR 5801 was grown in YNB and YEPD media, at 30°C with shaking at 225 rpm in an orbital incubator until a OD (660 nm) between 5 and 6 was reached. In parallel experiments several concentrations of β-gentiobiose or pustulan fragments were included in the media. After cultivation, the media were separated from the cells by centrifugation (10.000 x g for 15 mm at 4°C). The media were then filtered using 0.22 µM filters. Secretion of α-galactosidase-CWP2p was assessed by measuring α-galactosidase enzyme activity in the media (see further on). • b) Growth curves were obtained with the strain SU-50. The cells (about 10 per ml) were cultured in YEPD at 25°C in the presence or absence of β-gentiobiose or pustulan fragments and MB-21, by using a 24 well plate at room temperature with continuous shaking on a micro-titre plate shaker (mark 4) or a microbiology growth reader (Bioscreen C).
(§3) Three YEPD media were prepared, one without MB21, the other YEPD media contained 10 µM MB21 and 20 µM MB21, respectively. To these media β-gentiobiose was added in concentrations of 0, 50, 100 and 200 mM. The yeast strain SU50 was inoculated in these media in a concentration of 10 cells per ml, and cultivated in a 24 well plate at 25°C. Samples were taken from a 24 well plate at regular time intervals, diluted sixty times with distilled water and measured at 660 nm to construct the growth curves. […] However, if the sub-lethal concentrations of MB21 and β-gentiobiose are combined, a clear reduction in growth potential of SU50 (10 cells per ml) was observed.
This example illustrates a relationship between the length of the β-(1,6)-glucan fragments and their effectiveness in competition. When the same concentration of MB21 (20 µM) was used [about 50 cells per ml] was used, a glucan fragment was obtained from pustulan with an average MW of 686, which was at least hundred times as effective as β-gentiobiose, as shown in Fig. 4.
(§4) In this example, three strains are grown in various media in the fashion of example 3, with the exception of being inoculated in the media in a concentration of 100 cells per ml. The sugars used are all comparatives: laminaribiose (β-1,3)-linked D-glucose), sucrose (having a 1,2 link), and sorbitol.
In this example, strain SU 50 was grown three media (see table 2) in the fashion of example 3, with the exception of being inoculated in the media in a concentration of 100 cells per ml.

Test [2] deals with Zygosaccharomyces bailii ZB (NCYC 563). Briefly: Growth curves / growth inhibition of yeast strain ZB. To be noted: comparative sugar 200 mM with 6 µM MB21, strain ZB, 100 cells per ml; versus reference and MB21 alone (Fig. 5b). As for the experimental part:
as §1, §3, §4
In this example, strain ZB was grown three media (see table 3) in the fashion of example 3, with the exception of being inoculated in the media in a concentration of 100 cells per ml.

Test [3] has as its system Zygosaccharomyces bailii G1. The experiment in a line: Growth curves / growth inhibition of yeast strain G1. Conditions: comparative sugar 200 mM with 6 µM MB21, strain G1, 100 cells per ml; versus reference and MB21 alone (Fig. 5c). As for the experimental part:
as §1, §3, §4
In this example, strain G1 was grown three media (see table 4) in the fashion of example 3, with the exception of being inoculated in the media in a concentration of 100 cells per ml. […]

The subject of test [4] is Saccharomyces cerevisiae strain SU52-pUR5801. The experiment in a line: Cell wall protein release test (secretion of α-galactosidase-CWP2p fusion protein, α-galactosidase activity in the medium). Conditions: β-gentiobiose 10, 50 and 100 mM in YEPD with 5% galactose, 30 °C, 18 hours; linear up to 100 mM (Fig. 1). How it is done:
as §2
α-Galactosidase activity was determined at 37°C using p-nitrophenyl α-D-galactopyranoside (PNPG) as substrate in 0.1 M potassium acetate buffer, pH 5.0. […] The extinction of the liberated p-nitrophenolate was recorded at 405 nm.
β-Gentiobiose was dissolved in YEPD media supplemented with 5% galactose, in concentrations of 10, 50 and 100 mM respectively. […] The enzyme activity of the fusion protein CWP2-α-galactosidase was measured as described in the α-galactosidase assay. […]

`OC[C@H]1O[C@@H](O[C@H]2[C@H](O)[C@@H](CO)OC(O)[C@@H]2O)[C@H](O)[C@@H](O)[C@@H]1O` (stereo partly drawn) [laminaribiose]: in test [1], the effect on growth result is “stimulating effect”.
For the compound `OC[C@H]1O[C@@](CO)(O[C@H]2O[C@H](CO)[C@@H](O)[C@H](O)[C@H]2O)[C@@H](O)[C@@H]1O` [sucrose], the effect on growth result in test [1], in test [2] and in test [3] was “stimulating effect” each time.
With `OC[C@@H](O)[C@@H](O)[C@H](O)[C@@H](O)CO` [sorbitol], the effect on growth result in test [1], in test [2] and in test [3] was “stimulating effect” each time.
For the compound `OC[C@H]1O[C@@H](OC[C@H]2O[C@@H](O)[C@H](O)[C@@H](O)[C@@H]2O)[C@H](O)[C@@H](O)[C@@H]1O` [β-Gentiobiose, 6-O-β-D-glucopyranosyl-β-D-glucose], the “release of the fusion protein α-galactosidase-CW2p from the cell wall” value in test [4] is “concentration dependent”. Further, the “growth of SU-50” value in test [1] (β-gentiobiose as such (0, 50, 100, 200 mM), no MB21, 10 cells per ml, 25°C, OD 660 (Fig. 3)) is given as “no influence”.

Values taken from patent publication EP1023836A1, “Compositions and methods for inhibiting the growth of fungi” (UNILEVER N.V., priority 1999, dated 2000).
